Experiments:
Conditions in all cases: TZM-bl cells, MOI 0.02, 48 h; virus infectivity read-out; NNRTI pocket
[1] = biological target: T1, HIV-1 reverse transcriptase (RT), HIV-1NL4-3 (Human immunodeficiency virus type 1 (NEW YORK-5 ISOLATE), UniProt P12497); test: single-cycle pseudovirus infection, luciferase; assay type: cell-based; design: gene gag-pol; mature RT p66/p51 heterodimer cut from Gag-Pol polyprotein; […]; tested in TZM-bl cells
[2] = biological target: T1, HIV-1 reverse transcriptase (RT), HIV-1NL4-3; test: single-cycle pseudovirus infection, luciferase; assay type: cell-based; design: gene gag-pol; mature RT p66/p51 heterodimer cut from Gag-Pol polyprotein; […]; tested in TZM-bl cells; remark: listed apart in the source
[3] = biological target: T1, HIV-1 reverse transcriptase (RT), HIV-1NL4-3; design: gene gag-pol
[4] = biological target: T1, HIV-1 reverse transcriptase (RT), HIV-1NL4-3; test: single-cycle pseudovirus infection, luciferase; assay type: cell-based; design: gene gag-pol; mature RT p66/p51 heterodimer cut from Gag-Pol polyprotein; […]; tested in TZM-bl cells; remark: listed apart in the source

Cc1cc(C)c(Nc2ccnc(Nc3ccc(C#N)cc3)n2)c(C)c1 [DAP, dapivirine]
DAP EC50 [1]: 0.26 ± 0.13 nM

Cn1c(Cn2ccc(C(F)(F)F)c(Oc3cc(Cl)cc(C#N)c3)c2=O)n[nH]c1=O [DOR, doravirine]
DOR EC50 [2]: 1.4 ± 0.28 nM

O=C1Nc2ccc(Cl)cc2[C@@](C#CC2CC2)(C(F)(F)F)O1 [EFV, efavirenz]
EFV EC50 [3]: 0.65 ± 0.30 nM

Cc1cc(C#N)cc(C)c1Oc1nc(Nc2ccc(C#N)cc2)nc(N)c1Br [ETR, etravirine]
ETR EC50 [4]: 0.83 ± 0.23 nM
